Source: patent US20050148570A1, “Novel substituted alkane compounds and uses thereof” (priority 2001, published 2005)
Converted amounts (≈) assume the structure as drawn.

How the values were obtained:
[1] = test system: C. diphtheriae; assay: MIC, broth dilution method; format: cell-based
Protocol: (§1) Antibacterial activity can be determined by several standard methods well known by those skilled in the art, including disc diffusions methods, broth dilution minimal inhibitory concentration (MIC) methods, etc., including the detailed method outlined below. Cultures of bacteria are initially brought up from the freezer by streaking a loopful onto agar plates under the appropriate conditions. For instance stocks are streaked onto chocolate agar and then incubated for 18 hours at 35-37° C. in a 5% CO2 incubator. Five to 10 colonies are picked from the chocolate agar plate for subculture to Brain-Heart Infusion (BHI) broth or Mueller Hinton broth or BHI containing 4% serum and incubated under the appropriate conditions. The ability of the test compound to act as an antimicrobial is determined by the ability to inhibit bacterial, algae, or fungal growth in vitro. The optical density of the culture of organisms in the presence of an active compound is compared to the optical density of the same organism untreated. The activity of the compounds is described as either negative or the lowest concentration inhibiting growth.

[2] = test system: E. faecalis; assay: MIC, broth dilution method; format: cell-based
Protocol: as §1

[3] = test system: H. influenzae; assay: MIC, broth dilution method; format: cell-based
Protocol: as §1

[4] = test system: H. pylori; assay: MIC, broth dilution method; format: cell-based
Protocol: as §1

[5] = test system: M. catarrhalis; assay: MIC, broth dilution method; format: cell-based
Protocol: as §1

[6] = test system: M. smegimatis; assay: MIC, broth dilution method; format: cell-based; settings: for MIC: read-out: MIC Anti-Bacterial Activity
Protocol: as §1

[7] = test system: S. aureus; assay: MIC, broth dilution method; format: cell-based; settings: for MIC: Staphylococcus aureus, read-out: Antibacterial Activity against S. aureus MIC
Protocol: as §1

[8] = test system: S. epidermidis; assay: MIC, broth dilution method; format: cell-based
Protocol: as §1

[9] = test system: S. pneumoniae; assay: MIC, broth dilution method; format: cell-based
Protocol: as §1

[10] = test system: S. pyogenes; assay: MIC, broth dilution method; format: cell-based
Protocol: as §1

[11] = test system: methicillin-sensitive Staphylococcus aureus; assay: Wound healing model (FIG. 1); format: in vivo; settings: methicillin-susceptible Staphylococcus aureus; mice; composition applied topically twice daily; sampled 72 hours post-infection
Protocol: (§2) FIG. 1. Efficacy of a composition comprising the compound of Example 9 in the wound healing model. A defined inoculum of approximately 10^5 CFU of methicillin-sensitive Staphylococcus aureus in 20 μl culture medium was pipetted into a wound approximately 1 cm^2 created by removal of the epidermis from the shaved backs of mice. After 24 hours, the composition comprising Example 9, placebo control or positive control ointment was applied twice daily. Approximately, seventy two hours post-infection, the wound was sampled and appropriate dilutions plated on nutritive agars for determination of microbial burden. The number of colony forming units (CFU) of methicillin-sensitive Staphylococcus aureus per wound is shown.
(§3) The wound healing model, using methods generally known by those skilled in the art, is used to measure the efficacy of topically applied compounds in suitable vehicles against any bacteria, for example, Staphylococcus epidermis, Staphylococcus aureus, Streptococcus pyrogenes, Haemophilus influenzae, or mixtures thereof. By removing several epidermal layers by surgical procedure, a superficial wound of approximately 1 cm^2 was created. About 10^5cfu/20 ul of culture medium of any bacteria, for example, S aureus, was applied to the wound. […]

[12] = test system: methicillin-resistant Staphylococcus aureus; assay: Wound healing model (FIG. 2); format: in vivo; settings: mice, composition applied topically twice daily, sampled 72 hours post-infection
Protocol: as §2, with “2.” for “1.”, “methicillin-resistant” for “methicillin-sensitive”
as §3

[13] = test system: Staphylococcus epidermidis; assay: Wound healing model (FIG. 3); format: in vivo; settings: mice, composition applied topically twice daily, sampled 72 hours post-infection
Protocol: as §2, with “3.” for “1.”, “epidermis” for “aureus”
as §3

`CCCCC1CC(c2ccc(O)c(C)c2)(c2ccc(O)c(C)c2)C1` [Example 2, 1,1-Bis(4-hydroxy-3-methylphenyl)-3-n-butyl-cyclobutane] gave an MIC ([1]; Corynebacterium diphtheriae, read-out: MIC Anti-Bacterial Activity) of 1 µg/mL (≈ 3.08 µM), an MIC ([2]; Enterococcus faecalis, read-out: MIC Anti-Bacterial Activity) of 2 µg/mL (≈ 6.16 µM) and an MIC ([3]; Haemophilus influenzae, read-out: MIC Anti-Bacterial Activity) of 1 µg/mL (≈ 3.08 µM). The MIC ([4]; Helicobacter pylori, read-out: MIC Anti-Bacterial Activity) was 16 µg/mL (≈ 49.3 µM), the MIC ([5]; Moraxella catarrhalis, read-out: MIC Anti-Bacterial Activity) was 1 µg/mL (≈ 3.08 µM) and the MIC [6] was 2 µg/mL (≈ 6.16 µM). It also gave an MIC [7] of 1 µg/mL (≈ 3.08 µM), an MIC ([8]; Staphylococcus epidermidis, read-out: MIC Anti-Bacterial Activity) of 1 µg/mL (≈ 3.08 µM) and an MIC ([9]; Streptococcus pneumoniae, read-out: MIC Anti-Bacterial Activity) of 6 µg/mL (≈ 18.5 µM). It also gave an MIC ([10]; Streptococcus pyogenes, read-out: MIC Anti-Bacterial Activity) of 6 µg/mL (≈ 18.5 µM) and a melting point of 135 to 137 °C.
With `CCCCC1CC(c2ccc(O)c(Cl)c2)(c2ccc(O)c(Cl)c2)C1` [Example 8, 1,1-Bis(4-hydroxy-3-chloro-phenyl)-3-n-butyl-yclobutane] the “MIC Anti-Bacterial Activity” value [1] was 1 µg/mL (≈ 2.74 µM), the “MIC Anti-Bacterial Activity” value [2] was 1 µg/mL (≈ 2.74 µM) and the “MIC Anti-Bacterial Activity” value [3] was 3 µg/mL (≈ 8.21 µM). For the same compound, the “MIC Anti-Bacterial Activity” value [4] was 31 µg/mL (≈ 84.9 µM), the “MIC Anti-Bacterial Activity” value [5] was 1 µg/mL (≈ 2.74 µM) and the “MIC Anti-Bacterial Activity” value [6] was 1 µg/mL (≈ 2.74 µM). For the same compound, the “Antibacterial Activity against S. aureus MIC” value ([7]; S. aureus) was 0.5 µg/mL, the “MIC Anti-Bacterial Activity” value [8] was 1 µg/mL (≈ 2.74 µM) and the “MIC Anti-Bacterial Activity” value [9] was 3 µg/mL (≈ 8.21 µM). The “MIC Anti-Bacterial Activity” value [10] was 13 µg/mL (≈ 35.6 µM).
For `CCCCCC(C)(c1ccc(O)c(C)c1)c1ccc(O)c(C)c1` [Example 9, 2,2-Bis(4-hydroxy-3-methylphenyl)heptane], the MIC [6] was 2 µg/mL (≈ 6.4 µM), the MIC [7] was 1 µg/mL (≈ 3.2 µM) and the “reducing the population levels of pathogenic bacteria in wound” value (from here on “reducing the population levels”) [11] was “efficacious”. For the same compound, the “reducing the population levels” value [12] was “efficacious” and the “reducing the population levels” value [13] was “efficacious”.
